How the values were obtained:
[1] = test system: PNMT; assay: In vivo conversion of 3H-norepinephrine into 3H-epinephrine in rat adrenals after oral dosing (PNMT inhibition); settings: rats, 50 mg./kg. three times over 24 hours, tracer 3H-norepinephrine i.v. (tail vein) one hour after last dose, adrenals assayed 45 min later, active if p<0.05
Source text: One hour after the last dose the rats are given a tracer dose of ^3 H-norepinephrine into a tail vein. Forty-five minutes later they are sacrificed by decapitation and the adrenals assayed for ^3 H-epinephrine and ^3 H-norepinephrine.

[2] = target: T1, phenylethanolamine N-methyltransferase (Oryctolagus cuniculus, UniProt G1TT82); assay: In vitro inhibition of phenylethanolamine N-methyltransferase (Pendleton and Snow procedure); type: biochemical; settings: for In Vitro Inhibition % at 10^-4: compound concentration 10^-4; for inhibition at 1 µM: compound concentration 10^-6M
T1 construct: from tissue
T1 sequence (G1TT82 1-286): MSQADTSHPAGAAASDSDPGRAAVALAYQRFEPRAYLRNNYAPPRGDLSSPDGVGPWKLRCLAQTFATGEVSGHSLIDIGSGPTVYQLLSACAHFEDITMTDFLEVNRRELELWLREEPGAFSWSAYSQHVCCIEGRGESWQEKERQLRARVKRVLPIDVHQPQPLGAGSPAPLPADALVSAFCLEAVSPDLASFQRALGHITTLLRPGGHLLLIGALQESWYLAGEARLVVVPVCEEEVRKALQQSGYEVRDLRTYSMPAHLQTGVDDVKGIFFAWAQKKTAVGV
Source text: For example, following are in vitro results obtained from testing several compounds present in the pharmaceutical compositions and methods of this invention.

## NC1Cc2ccc(S(N)(=O)=O)cc2C1 (stereo not shown) [5-sulfamoyl-2-aminoindane, 5-sulfamyl-2-indanamine]
[1]
  inhibition of the conversion of radioactive norepinephrine into epinephrine: significantly inhibited this conversion (p<0.01)

## NC1Cc2ccc(Br)cc2C1 (stereo not shown) [compound 85347]
[2]
  In Vitro Inhibition % at 10^-4: 96%
  inhibition at 1 µM: 33%

## NC1Cc2ccc([N+](=O)[O-])cc2C1 (stereo not shown) [compound 85391]
[2]
  In Vitro Inhibition % at 10^-4: 96%
  inhibition at 1 µM: 23%

## NC1Cc2ccc(Cl)cc2C1 (stereo not shown) [compound 85506]
[2]
  In Vitro Inhibition % at 10^-4: 96%
  inhibition at 1 µM: 37%
